Eight compounds from patent US7750014B2, “Imidazo[1,2-C]pyrimidinylacetic acid derivatives” (Actimis Pharmaceuticals, Inc., priority 2004, dated 2010) can be followed below.

For assay [1], the target named is T1, human CRTH2 (Homo sapiens, UniProt Q9Y5Y4).
T1 construct: expressed in transfected cells
T1 sequence (Q9Y5Y4 1-395): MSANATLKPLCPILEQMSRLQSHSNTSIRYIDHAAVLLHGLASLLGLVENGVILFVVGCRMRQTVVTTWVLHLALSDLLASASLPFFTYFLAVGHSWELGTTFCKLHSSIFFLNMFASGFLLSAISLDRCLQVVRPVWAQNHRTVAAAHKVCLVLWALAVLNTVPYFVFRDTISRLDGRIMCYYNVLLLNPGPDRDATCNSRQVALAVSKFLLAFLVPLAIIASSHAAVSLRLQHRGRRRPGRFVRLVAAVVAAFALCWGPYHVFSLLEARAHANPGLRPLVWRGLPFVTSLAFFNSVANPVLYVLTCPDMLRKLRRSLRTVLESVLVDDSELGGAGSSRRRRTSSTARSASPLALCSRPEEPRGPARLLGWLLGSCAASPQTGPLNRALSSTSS
Briefly: Measurement of Ca2+ mobilization in the human CRTH2-transfected L1.2 cell line (Assay 1). The format is cell-based. To be noted: PGD2-induced Ca2+ mobilization, CRTH2-transfected L1.2 cells, compounds at purity of about 40 to 90%. How it is done: (§1) Human CRTH2 cDNA was amplified from human eosinophil cDNA with gene specific primers containing restriction sites for cloning into pEAK vector (Edge Bio Systems). The human CRTH2 cDNA was cloned into the mammalian expression vector pEAK. This expression plasmid (40 μg) was transfected into L1.2 cells, at a cell density of 1×10^7 cells/500 μl, by using electroporation apparatus (Gene Pulser II, BioRad) at 250V/1,000 μF. One day after the transfection, puromycin (1 μg/ml, Sigma) was added into the cell culture plates. Two weeks after the transfection, grown cells were picked up for further growth.
Ca^2+ loading buffer was prepared by mixing 5 μl of Fluo-3AM (2 mM in DMSO, final 1 μM, Molecular Probes) and 10 μl of pluronic F-127 (Molecular Probes) and diluting the resulting mixture in 10 ml of Ca^2+ assay buffer (20 mM HEPES pH 7.6, 0.1% BSA, 1 mM probenecid, Hanks' solution). The CRTH2 transfected cells which were prepared in Example 1 were washed with PBS, resuspended in Ca^2+ loading buffer at 1×10^7 cells/ml, and incubated for 60 min at room temperature. After incubation, cells were washed and resuspended in Ca^2+ assay buffer, then dispensed into transparent-bottom 96-well plates (#3631, Costar) at 2×10^5 cells/well. Cells were incubated with various concentrations of test compound for 5 minutes at room temperature. The emitted 480 nm fluorescence was measured on FDSS6000, a Ca^2+-measurement apparatus (Hamamatsu Photonics, Hamamatsu, Japan).
Assay results in Assay 1 are shown in Examples and tables of the Examples below. The data corresponds to the compounds as yielded by solid phase synthesis and thus to levels of purity of about 40 to 90%. For practical reasons, the compounds are grouped in four classes of activity as follows: IC50=A(< or =)10 nM<B(< or =)100 nM<C(< or =)500 nM<D
In general terms: Calcium assays in cells follow changes in intracellular calcium, usually with a dye or a luminescent sensor.

The target of assay [2] is T1, human CRTH2. Briefly: Human CRTH2 receptor binding assay (Assay 2). To be noted: binding to puromycin-resistant CRTH2 L1.2 transfectants. On the procedure: as §1
CRTH2 transfectants were washed once with PBS and resuspended in binding buffer (50 mM Tris-HCl, pH7.4, 40 mM MgCl2, 0.1% BSA, 0.1% NaN3). 100 μl of cell suspension (2×10^5 cells), [^3H]-labeled PGD2, and various concentrations of test compound were then mixed in a 96-well U-bottom polypropylene plate and incubated for 60 min at room temperature to allow binding to occur. After incubation, the cell suspension was transferred to a filtration plate (#MAFB, Millipore) and washed 3 times with binding buffer. Scintillant was added to the filtration plate, and radioactivity remaining on the filter was measured by TopCount (Packard), a scintillation counter. Non-specific binding was determined by incubating the cell suspension and [^3H]-labeled PGD2 in the presence of 1 μM of unlabeled PGD2.

Setting [3] is: read-out: In vitro activity grade.

Where two headings read alike, the source gives them in different places.

As to `O=C(O)Cc1cnc(Cc2ccc(NC(=O)c3ccc(Cl)c(Cl)c3)cc2)n2ccnc12` [Example 2-2, (5-{4-[(3,4-Dichlorobenzoyl)amino]benzyl}imidazo[1,2-c]pyrimidin-8-yl)acetic acid], on human CRTH2 [1] (setting [3]), the IC50 was in the range of 100 to 500 nM.
On to `O=C(O)Cc1c(Cl)nc(Cc2ccc(NC(=O)c3ccc(Cl)c(Cl)c3)cc2)n2ccnc12` [Example 1-2, (7-chloro-5-{4-[(3,4-dichlorobenzoyl)amino]benzyl}imidazo[1,2-c]pyrimidin-8-yl)acetic acid], for which, at human CRTH2 [1] (read-out: Activity class), the IC50 was less than 10 nM.
Same read-out and setting: next, `O=C(O)Cc1c(Cl)nc(Cc2ccc(NC(=O)c3ccc4ccccc4c3)cc2)n2ccnc12` [Example 1-3, {7-chloro-5-[4-(2-naphthoylamino)benzyl]imidazo[1,2-c]pyrimidin-8-yl}acetic acid]: 10 to 100 nM.
For the compound `O=C(O)Cc1cnc(Cc2ccc(NC(=O)c3ccc(C(F)(F)F)cc3)cc2)n2ccnc12` [Example 2-1, [5-(4-{[4-(trifluoromethyl)benzoyl]amino}benzyl)imidazo[1,2-c]pyrimidin-8-yl]acetic acid], the IC50 at human CRTH2 [1] (setting [3]) lay within 10 to 100 nM.
With `O=C(O)Cc1c(Cl)nc(Cc2ccc(NC(=O)c3ccc(C(F)(F)F)cc3)cc2)n2ccnc12` [Example 1-1, [7-Chloro-5-(4-{[4-(trifluoromethyl)benzoyl]amino}benzyl)imidazo[1,2-c]pyrimidin-8-yl]acetic acid], the IC50 at human CRTH2 [1] (setting [3]) lay within 10 to 100 nM.
As for `CCCCC[C@H](O)/C=C/[C@H]1C(=O)C[C@H](O)[C@@H]1C/C=C\CCCC(=O)O` [[^3H]-labeled PGD2], on human CRTH2 [2], the Kd (usually the concentration at which binding is half-saturated) was determined as 6.3 nM.
Take `O=C(O)Cc1c(Cl)nc(Cc2ccc(NC(=O)/C=C/c3ccccc3)cc2)n2ccnc12` [Example 1-4]: the IC50 on human CRTH2 [1] (read-out: Activity class) is less than 10 nM.
On to `O=C(O)Cc1c(Cl)nc(Cc2ccc(NC(=O)/C=C/c3ccc(Cl)cc3)cc2)n2ccnc12` [Example 1-5, [7-chloro-5-(4-{[(2E)-3-(4-chlorophenyl)prop-2-enoyl]amino}benzyl)imidazo[1,2-c]pyrimidin-8-yl]acetic acid], for which the IC50 on human CRTH2 [1] (read-out: Activity class) is 10 to 100 nM.
